Our source for the inhibition values is PMC6934184, “Selective DNA-PKcs inhibition extends the therapeutic index of localized radiotherapy and chemotherapy” (The Journal of Clinical Investigation, 2019).

The target in this experiment is T1, PRKACB (PRKAC beta) (Homo sapiens, UniProt P22694).
T1 construct: purchased Thermo Fisher Scientific (Life Technologies) SelectScreen
Kind of experiment: SelectScreen LanthaScreen. It is filed as binding. Particulars: read-out: % displacement. The essentials: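 NU5455 was profiled across the SelectScreen Broad panel of kinase activity and binding assays. Z'LYTE reactions such as CSF1R ran at apparent Km ATP, while the Adapta CAMK1 assay used ATP listed as 10. Values are given as percent.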

In the case of `CN(C(=O)CN1CCOCC1)c1ccc2sc3c(-c4cccc5c(=O)cc(N6CC7CCC(C6)O7)oc45)cccc3c2c1` [NU5455], the inhibition at 1 µM was -6.8%.
